The results in this text go back to patent US20230135729A1, “COMPOUND WITH ANTI-SPORE ACTIVITY AND PHARMACEUTICAL COMPOSITION THEREOF” (priority 2020, published 2023).

≈ marks a conversion by molar mass, not a printed value.

Common to all, as to assay type: cell-based
Assay [1] deals with spores of ATCC BBA1870 strain. In words: Inhibition of germination of C. difficile spores (MIC), strain ATCC BBA1870. To be noted: Clostridioides difficile, ATCCBBA1870STRAIN, 1 h; strain 1870; sodium taurocholate as germinant, BHIS medium, 37° C., OD580 for 60 min; read-out: MIC (minimum concentration that completely inhibits spore germination). In short, it runs like this: (§1)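 Spores heat-activated for 30 min at 65° C and washed, then preincubated with compound (10 mM DMSO stock) in BHIS at 37° C. Germination was triggered with sodium taurocholate, and OD580 was read each minute for 60 min. Inhibition = 100% − germination rate, from final vs initial OD relative to germinant-only controls.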

The test system of assay [2] is spores of ATCC 43255 strain. The assay can be described thus: Inhibition of germination of C. difficile spores (MIC), strain ATCC 43255. The conditions noted are these: Clostridioides difficile, ATCC43255, 1 h; strain 43255; sodium taurocholate as germinant, BHIS medium, 37° C., OD580 for 60 min; read-out: MIC (minimum concentration that completely inhibits spore germination). In short, it runs like this:
as §1

Assay [3] relates to spores of ATCC 630 strain. The assay can be described thus: Inhibition of germination of C. difficile spores (MIC), strain ATCC 630. To be noted: Clostridioides difficile, ATCC630, 1 h; strain 630; sodium taurocholate as germinant, BHIS medium, 37° C., OD580 for 60 min; read-out: MIC (minimum concentration that completely inhibits spore germination). An outline of the steps:
as §1

In the case of `CC[C@@H](NC(=O)C[C@@H](C)[C@H]1CC[C@H]2[C@@H]3[C@H](O)C[C@@H]4C[C@H](O)CC[C@]4(C)[C@H]3C[C@H](O)[C@]12C)c1ccc(Cl)s1` [Compound I-145], the results for the MIC in assay [1], in assay [2] and in assay [3] were 32 µM (≈ 17.7 µg/mL), 32 µM (≈ 17.7 µg/mL) and 16 µM (≈ 8.84 µg/mL), respectively.

Turning to `CC(C)[C@@H](NC(=O)C[C@@H](C)[C@H]1CC[C@H]2[C@@H]3[C@H](O)C[C@@H]4C[C@H](O)CC[C@]4(C)[C@H]3C[C@H](O)[C@]12C)c1ccc(Cl)s1` [Compound I-146], the MIC in assay [1], in assay [2] and in assay [3] was 16 µM (≈ 9.06 µg/mL) throughout.

With `CC[C@@H](NC(=O)C[C@@H](C)[C@H]1CC[C@H]2[C@@H]3CC[C@@H]4C[C@H](O)CC[C@]4(C)[C@H]3CC[C@]12C)c1ccc(Br)s1` [Compound I-147], the values for the MIC in assay [1], in assay [2] and in assay [3] were 32 µM (≈ 18.1 µg/mL), 16 µM (≈ 9.03 µg/mL) and 16 µM (≈ 9.03 µg/mL), respectively.

On to `CC(C)[C@@H](NC(=O)C[C@@H](C)[C@H]1CC[C@H]2[C@@H]3CC[C@@H]4C[C@H](O)CC[C@]4(C)[C@H]3CC[C@]12C)c1ccc(Br)s1` [Compound I-148], for which the MIC in assay [1], in assay [2] and in assay [3] was 16 µM (≈ 9.26 µg/mL) in each case.

For `CC[C@@H](NC(=O)C[C@@H](C)[C@H]1CC[C@H]2[C@@H]3C(=O)C[C@@H]4C[C@H](O)CC[C@]4(C)[C@H]3CC[C@]12C)c1ccc(Cl)s1` [Compound I-149], the MIC in assay [1], in assay [2] and in assay [3] was 2 µM (≈ 1.07 µg/mL) throughout.

As for `CC(C)[C@@H](NC(=O)C[C@@H](C)[C@H]1CC[C@H]2[C@@H]3C(=O)C[C@@H]4C[C@H](O)CC[C@]4(C)[C@H]3CC[C@]12C)c1ccc(Cl)s1` [Compound I-150], the MIC in assay [1] came to 2 µM (≈ 1.1 µg/mL); in assay [2] it was 2 µM (≈ 1.1 µg/mL); in assay [3], 1 µM (≈ 0.548 µg/mL).

In the case of `CC[C@@H](NC(=O)C[C@@H](C)[C@H]1CC[C@H]2[C@@H]3C(=O)CC4=CC(=O)CC[C@]4(C)[C@H]3CC[C@]12C)c1ccc(Br)s1` [Compound I-151], the results for the MIC in assay [1], in assay [2] and in assay [3] were 0.5 µM (≈ 0.287 µg/mL), 1 µM (≈ 0.575 µg/mL) and 0.5 µM (≈ 0.287 µg/mL), respectively.

As to `CC(C)[C@@H](NC(=O)C[C@@H](C)[C@H]1CC[C@H]2[C@@H]3C(=O)CC4=CC(=O)CC[C@]4(C)[C@H]3CC[C@]12C)c1ccc(Br)s1` [Compound I-152], the MIC in assay [1] is 1 µM (≈ 0.589 µg/mL); in assay [2], 1 µM (≈ 0.589 µg/mL); in assay [3] it was 0.5 µM (≈ 0.294 µg/mL).

Regarding `CC[C@@H](NC(=O)C[C@@H](C)[C@H]1CC[C@H]2[C@@H]3C(=O)CC4=CC(=O)C=C[C@]4(C)[C@H]3CC[C@]12C)c1ccc(Cl)s1` [Compound I-153], the MIC in assay [1], in assay [2] and in assay [3] was 0.5 µM (≈ 0.264 µg/mL) throughout.

On to `CC(C)[C@@H](NC(=O)C[C@@H](C)[C@H]1CC[C@H]2[C@@H]3C(=O)CC4=CC(=O)C=C[C@]4(C)[C@H]3CC[C@]12C)c1ccc(Cl)s1` [Compound I-154], for which the results for the MIC in assay [1], in assay [2] and in assay [3] were 1 µM (≈ 0.542 µg/mL), 0.5 µM (≈ 0.271 µg/mL) and 0.5 µM (≈ 0.271 µg/mL), respectively.

Regarding `CC[C@@H](NC(=O)C[C@@H](C)[C@H]1CC[C@H]2[C@@H]3[C@H](O)CC4=CC(=O)CC[C@]4(C)[C@H]3CC[C@]12C)c1ccc(Br)s1` [Compound I-155-2], the MIC in assay [1], in assay [2] and in assay [3] was 0.25 µM (≈ 0.144 µg/mL) each time.

For the molecule `CC(C)[C@@H](NC(=O)C[C@@H](C)[C@H]1CC[C@H]2[C@@H]3[C@H](O)CC4=CC(=O)CC[C@]4(C)[C@H]3CC[C@]12C)c1ccc(Br)s1` [Compound I-156-2], the values for the MIC in assay [1], in assay [2] and in assay [3] were 0.25 µM (≈ 0.148 µg/mL), 0.5 µM (≈ 0.295 µg/mL) and 0.25 µM (≈ 0.148 µg/mL), respectively.

As for `CC[C@@H](NC(=O)C[C@@H](C)[C@H]1CC[C@H]2[C@@H]3[C@H](O)CC4=CC(=O)CC[C@]4(C)[C@H]3CC[C@]12C)c1ccc(Cl)s1` [Compound I-157-2], the MIC in assay [1] turned out to be 0.25 µM (≈ 0.133 µg/mL); in assay [2], 0.5 µM (≈ 0.266 µg/mL); in assay [3] it was 0.25 µM (≈ 0.133 µg/mL).

On to `CC(C)[C@@H](NC(=O)C[C@@H](C)[C@H]1CC[C@H]2[C@@H]3[C@H](O)CC4=CC(=O)CC[C@]4(C)[C@H]3CC[C@]12C)c1ccc(Cl)s1` [Compound I-158-2], for which the MIC in assay [1], in assay [2] and in assay [3] was 0.5 µM (≈ 0.273 µg/mL) throughout.

For `CC[C@@H](NC(=O)C[C@@H](C)[C@H]1CC[C@H]2[C@@H]3[C@H](O)CC4=CC(=O)C=C[C@]4(C)[C@H]3CC[C@]12C)c1ccc(Br)s1` [Compound I-159-2], the MIC in assay [1], in assay [2] and in assay [3] was 0.5 µM (≈ 0.287 µg/mL) throughout.

On to `CC(C)[C@@H](NC(=O)C[C@@H](C)[C@H]1CC[C@H]2[C@@H]3[C@H](O)CC4=CC(=O)C=C[C@]4(C)[C@H]3CC[C@]12C)c1ccc(Br)s1` [Compound I-160-2], for which the MIC in assay [1], in assay [2] and in assay [3] was 0.5 µM (≈ 0.294 µg/mL) in each case.

Turning to `CC[C@@H](NC(=O)C[C@@H](C)[C@H]1CC[C@H]2[C@@H]3[C@H](O)CC4=CC(=O)C=C[C@]4(C)[C@H]3CC[C@]12C)c1ccc(Cl)s1` [Compound I-161-2], the MIC stood at 0.25 µM (≈ 0.133 µg/mL) in assay [1], 0.5 µM (≈ 0.265 µg/mL) in assay [2] and 0.25 µM (≈ 0.133 µg/mL) in assay [3].

As to `CC(C)[C@@H](NC(=O)C[C@@H](C)[C@H]1CC[C@H]2[C@@H]3[C@H](O)CC4=CC(=O)C=C[C@]4(C)[C@H]3CC[C@]12C)c1ccc(Cl)s1` [Compound I-162-2], the MIC in assay [1], in assay [2] and in assay [3] was 0.5 µM (≈ 0.272 µg/mL) throughout.

For `CC[C@@H](NC(=O)C[C@@H](C)[C@H]1CC[C@H]2[C@@H]3[C@@H](O)C[C@@H]4CC(=O)CC[C@]4(C)[C@H]3CC[C@]12C)c1ccc(Cl)s1` [Compound I-163], the MIC in assay [1], in assay [2] and in assay [3] was 32 µM (≈ 17.1 µg/mL) in each case.

For `CC(C)[C@@H](NC(=O)C[C@@H](C)[C@H]1CC[C@H]2[C@@H]3[C@@H](O)C[C@@H]4CC(=O)CC[C@]4(C)[C@H]3CC[C@]12C)c1ccc(Cl)s1` [Compound I-164], the MIC in assay [1], in assay [2] and in assay [3] was 32 µM (≈ 17.5 µg/mL) in each case.

For `CC[C@@H](NC(=O)C[C@@H](C)[C@H]1CC[C@H]2[C@@H]3[C@H](O)C[C@@H]4CC(=O)CC[C@]4(C)[C@H]3C[C@H](O)[C@]12C)c1ccc(Br)s1` [Compound I-165], the MIC stood at 64 µM (≈ 38.1 µg/mL) in assay [1], 64 µM (≈ 38.1 µg/mL) in assay [2] and 32 µM (≈ 19 µg/mL) in assay [3].

On to `CC(C)[C@@H](NC(=O)C[C@@H](C)[C@H]1CC[C@H]2[C@@H]3[C@H](O)C[C@@H]4CC(=O)CC[C@]4(C)[C@H]3C[C@H](O)[C@]12C)c1ccc(Br)s1` [Compound I-166], for which the MIC in assay [1] is 64 µM (≈ 39 µg/mL); in assay [2], 32 µM (≈ 19.5 µg/mL); in assay [3], 32 µM (≈ 19.5 µg/mL).

Regarding `CC[C@@H](NC(=O)C[C@@H](C)[C@H]1CC[C@H]2[C@@H]3C(=O)C[C@@H]4C[C@H](OC)CC[C@]4(C)[C@H]3CC[C@]12C)c1ccc(Cl)s1` [Compound I-167], the MIC in assay [1] is 256 µM (≈ 140 µg/mL); in assay [2], 128 µM (≈ 70.2 µg/mL); in assay [3] it was 128 µM (≈ 70.2 µg/mL).

For `CO[C@@H]1CC[C@@]2(C)[C@H](CC(=O)[C@@H]3[C@@H]2CC[C@]2(C)[C@@H]([C@H](C)CC(=O)N[C@@H](c4ccc(Cl)s4)C(C)C)CC[C@@H]32)C1` [Compound I-168], the MIC in assay [1], in assay [2] and in assay [3] was 128 µM (≈ 72 µg/mL) throughout.

Regarding `CC[C@@H](NC(=O)C[C@@H](C)[C@H]1CC[C@H]2[C@@H]3[C@H](O)C[C@@H]4C[C@H](OC)CC[C@]4(C)[C@H]3CC[C@]12C)c1ccc(Cl)s1` [Compound I-169], the values for the MIC in assay [1], in assay [2] and in assay [3] were 256 µM (≈ 141 µg/mL), 256 µM (≈ 141 µg/mL) and 128 µM (≈ 70.4 µg/mL), respectively.

`CO[C@@H]1CC[C@@]2(C)[C@@H](C1)C[C@@H](O)[C@@H]1[C@@H]2CC[C@]2(C)[C@@H]([C@H](C)CC(=O)N[C@@H](c3ccc(Cl)s3)C(C)C)CC[C@@H]12` [Compound I-170]: the MIC in assay [1], in assay [2] and in assay [3] was 128 µM (≈ 72.2 µg/mL) throughout.

On to `CC[C@@H](NC(=O)C[C@@H](C)[C@H]1CC[C@H]2[C@@H]3[C@H](N)C[C@@H]4C[C@H](O)CC[C@]4(C)[C@H]3CC[C@]12C)c1ccc(Cl)s1` [Compound I-171], for which the MIC in assay [1], in assay [2] and in assay [3] was 32 µM (≈ 17.1 µg/mL) each time.

As to `CC[C@@H](NC(=O)C[C@@H](C)[C@H]1CC[C@H]2[C@@H]3[C@H](N)C[C@@H]4CC(=O)CC[C@]4(C)[C@H]3CC[C@]12C)c1ccc(Cl)s1` [Compound I-172], the MIC in assay [1], in assay [2] and in assay [3] was 32 µM (≈ 17.1 µg/mL) each time.

For `CC(C)[C@@H](NC(=O)C[C@@H](C)[C@H]1CC[C@H]2[C@@H]3[C@H](N)C[C@@H]4C[C@H](O)CC[C@]4(C)[C@H]3CC[C@]12C)c1ccc(Cl)s1` [Compound I-173], the values for the MIC in assay [1], in assay [2] and in assay [3] were 32 µM (≈ 17.6 µg/mL), 16 µM (≈ 8.79 µg/mL) and 16 µM (≈ 8.79 µg/mL), respectively.
